Data as given in patent publication US10538498B2, “1,3,4-oxadiazole sulfonamide derivative compounds as histone deacetylase 6 inhibitor, and the pharmaceutical composition comprising the same” (Chong Kun Dang Pharmaceutical Corp., priority 2015, dated 2020).

Assays:
human recombinant HDAC1 = biological target: T1, human recombinant HDAC1 (Homo sapiens, UniProt Q13547); assay: HDAC1 enzyme activity inhibition assay (HDAC Fluorimetric Drug Discovery Kit); assay type: biochemical; conditions: 0.3 μg enzyme, 10 μM substrate, 30° C., 60 minutes
T1 construct: purchased Enzo Life Science BML-SE456
T1 sequence (Q13547 whole entry): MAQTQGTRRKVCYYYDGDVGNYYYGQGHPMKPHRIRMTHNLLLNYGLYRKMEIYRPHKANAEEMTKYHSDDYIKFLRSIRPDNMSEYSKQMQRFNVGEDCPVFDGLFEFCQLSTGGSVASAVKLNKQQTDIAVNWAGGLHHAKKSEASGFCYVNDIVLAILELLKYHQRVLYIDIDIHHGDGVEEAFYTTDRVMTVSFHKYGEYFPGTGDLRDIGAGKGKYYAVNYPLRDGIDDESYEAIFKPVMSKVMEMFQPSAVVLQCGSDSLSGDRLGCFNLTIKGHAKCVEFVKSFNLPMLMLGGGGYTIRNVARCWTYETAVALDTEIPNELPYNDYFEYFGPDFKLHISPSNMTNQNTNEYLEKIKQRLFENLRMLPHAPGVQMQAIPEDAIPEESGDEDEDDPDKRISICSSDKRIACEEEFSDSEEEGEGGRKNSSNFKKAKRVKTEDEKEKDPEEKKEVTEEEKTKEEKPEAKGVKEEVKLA
How it was run: (§1)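 First, compound in 5-fold dilution steps is combined with 0.3 μg enzyme and 10 μM Fluor de Lys-SIRT1 substrate. After 60 min at 30° C, developer is added for 30 min. Fluorescence at Ex 360/Em 460 then gives IC50 values.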

human recombinant HDAC6 = biological target: T2, human recombinant HDAC6 (Homo sapiens, UniProt Q9UBN7); assay: HDAC6 enzyme activity inhibition assay (HDAC Fluorimetric Drug Discovery Kit); assay type: biochemical; conditions: for HDAC6 selectivity (fold): HDAC1 vs HDAC6; for IC50: same protocol as the HDAC1 enzyme activity test
T2 construct: purchased Calbiochem 382180
T2 sequence (Q9UBN7 1-1215): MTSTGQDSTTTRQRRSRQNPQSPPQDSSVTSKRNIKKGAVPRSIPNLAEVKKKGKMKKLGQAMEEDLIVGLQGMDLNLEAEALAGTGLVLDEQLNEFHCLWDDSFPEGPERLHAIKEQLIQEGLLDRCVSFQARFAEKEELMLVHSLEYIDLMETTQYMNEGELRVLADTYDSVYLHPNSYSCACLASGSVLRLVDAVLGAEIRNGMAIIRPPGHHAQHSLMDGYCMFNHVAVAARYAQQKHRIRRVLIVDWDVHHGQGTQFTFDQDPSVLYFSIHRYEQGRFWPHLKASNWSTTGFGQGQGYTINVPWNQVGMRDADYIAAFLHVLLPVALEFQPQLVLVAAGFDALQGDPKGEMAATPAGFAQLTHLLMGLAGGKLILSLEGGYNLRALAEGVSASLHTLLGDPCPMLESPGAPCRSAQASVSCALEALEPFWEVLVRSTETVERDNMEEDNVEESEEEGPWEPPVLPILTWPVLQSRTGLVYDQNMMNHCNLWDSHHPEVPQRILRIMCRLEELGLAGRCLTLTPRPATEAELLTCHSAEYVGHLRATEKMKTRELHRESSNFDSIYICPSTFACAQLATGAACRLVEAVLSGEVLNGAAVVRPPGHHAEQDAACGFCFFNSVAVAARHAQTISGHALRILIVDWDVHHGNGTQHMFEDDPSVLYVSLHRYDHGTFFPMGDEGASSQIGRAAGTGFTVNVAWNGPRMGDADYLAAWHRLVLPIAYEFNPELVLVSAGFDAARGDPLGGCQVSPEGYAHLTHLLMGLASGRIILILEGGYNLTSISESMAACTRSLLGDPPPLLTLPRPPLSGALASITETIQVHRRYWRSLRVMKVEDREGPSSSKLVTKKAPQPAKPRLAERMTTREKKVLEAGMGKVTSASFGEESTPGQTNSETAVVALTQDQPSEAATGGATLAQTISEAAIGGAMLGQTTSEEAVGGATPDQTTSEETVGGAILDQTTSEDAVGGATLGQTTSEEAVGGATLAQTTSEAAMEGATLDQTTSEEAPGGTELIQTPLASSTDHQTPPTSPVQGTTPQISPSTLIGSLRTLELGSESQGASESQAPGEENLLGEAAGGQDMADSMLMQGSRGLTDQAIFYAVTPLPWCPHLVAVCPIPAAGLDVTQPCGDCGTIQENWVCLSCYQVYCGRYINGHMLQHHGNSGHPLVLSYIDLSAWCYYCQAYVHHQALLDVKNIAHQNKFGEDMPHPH
How it was run: as §1

| Compound | IC50 (human recombinant HDAC1) [µM] | HDAC6 selectivity (fold) (human recombinant HDAC6) | IC50 (human recombinant HDAC6) [µM] |
| --- | --- | --- | --- |
| CS(=O)(=O)N1CCN(CCCS(=O)(=O)N(Cc2ccc(-c3nnc(C(F)F)o3)cc2)c2ccccc2)CC1 [Compound 11648, N-(4-(5-(difluoromethyl)-1,3,4-oxadiazol-2-yl)benzyl)-3-(4-(methylsulfonyl)piperazin-1-yl)-N-phenylpropane-1-sulfonamide] | 498 | 8300 | 0.06 |
| O=S(=O)(CCN1CCN(CCCO)CC1)N(Cc1ccc(-c2nnc(C(F)F)o2)cc1)c1ccccc1 [Compound 11679, N-(4-(5-(difluoromethyl)-1,3,4-oxadiazol-2-yl)benzyl)-2-(4-(3-hydroxypropyl)piperazin-1-yl)-N-phenylethane-1-sulfonamide] | 61.3 | 2666 | 0.023 |
| O=S(=O)(C1CCN(C2COC2)CC1)N(Cc1ccc(-c2nnc(C(F)F)o2)cc1)c1ccccc1 [Compound 11680, N-(4-(5-(difluoromethyl)-1,3,4-oxadiazol-2-yl)benzyl)-1-(oxetan-3-yl)-N-phenylpiperidine-4-sulfonamide] | 76.4 | 2634 | 0.029 |
| Cc1cccc(N(Cc2ccc(-c3nnc(C(F)F)o3)cn2)S(=O)(=O)C2CCN(C3CC4CCC3C4)CC2)c1 (stereo not drawn) [Compound 11686, 1-(bicyclo[2.2.1]heptan-2-yl)-N-((5-(5-(difluoromethyl)-1,3,4-oxadiazol-2-yl)pyridin-2-yl)methyl)-N-(m-tolyl)piperidine-4-sulfonamide] | 60.3 | 654 | 0.0921 |
| Cc1cccc(N(Cc2ccc(-c3nnc(C(F)F)o3)cn2)S(=O)(=O)C2CCN(C3CCC(F)(F)CC3)CC2)c1 [Compound 11687, 1-(4,4-difluorocyclohexyl)-N-((5-(5-(difluoromethyl)-1,3,4-oxadiazol-2-yl)pyridin-2-yl)methyl)-N-(m-tolyl)piperidine-4-sulfonamide] | 79.1 | 741 | 0.107 |
| Cc1cccc(N(Cc2ccc(-c3nnc(C(F)F)o3)cn2)S(=O)(=O)C2CCN([C@H]3CC[C@H](C(F)(F)F)CC3)CC2)c1 [Compound 11690, N-((5-(5-(difluoromethyl)-1,3,4-oxadiazol-2-yl)pyridin-2-yl)methyl)-N-(m-tolyl)-1-((1r,4r)-4-(trifluoromethyl)cyclohexyl)piperidine-4-sulfonamide] | 54.8 | 244 | 0.225 |
| Cc1cccc(N(Cc2ccc(-c3nnc(C(F)F)o3)cn2)S(=O)(=O)C2CCN(C3CCOCC3)CC2)c1 [Compound 11692, N-((5-(5-(difluoromethyl)-1,3,4-oxadiazol-2-yl)pyridin-2-yl)methyl)-1-(tetrahydro-2H-pyran-4-yl)-N-(m-tolyl)piperidine-4-sulfonamide] | 71.7 | 1309 | 0.0547 |
| Cc1cccc(N(Cc2ccc(-c3nnc(C(F)F)o3)cc2)S(=O)(=O)C2CCN([C@H]3CC[C@H](F)CC3)CC2)c1 [Compound 11695, N-(4-(5-(difluoromethyl)-1,3,4-oxadiazol-2-yl)benzyl)-1-((1r,4r)-4-fluorocyclohexyl)-N-(m-tolyl)piperidine-4-sulfonamide] | 61.4 | 306 | 0.2 |
| O=S(=O)(CCCO)N(Cc1ccc(-c2nnc(C(F)F)o2)cc1)c1ccccc1 [Compound 11708, N-(4-(5-(difluoromethyl)-1,3,4-oxadiazol-2-yl)benzyl)-3-hydroxy-N-phenylpropane-1-sulfonamide] | 65.1 | 837 | 0.0778 |
| O=C(OCCCS(=O)(=O)N(Cc1ccc(-c2nnc(C(F)F)o2)cc1)c1ccccc1)C(F)F [Compound 11709, 3-(N-(4-(5-(difluoromethyl)-1,3,4-oxadiazol-2-yl)benzyl)-N-phenylsulfamoyl)propyl 2,2-difluoroacetate] | 80.4 | 1065 | 0.0755 |
| O=S(=O)(CCCN1CCOCC1)N(Cc1ccc(-c2nnc(C(F)F)o2)cn1)c1ccc(F)c(Cl)c1 [Compound 11711, N-(3-chloro-4-fluorophenyl)-N-((5-(5-(difluoromethyl)-1,3,4-oxadiazol-2-yl)pyridin-2-yl)methyl)-3-morpholinopropane-1-sulfonamide] | 61.3 | 874 | 0.0701 |

More lines, now with the values ahead:

| IC50 (human recombinant HDAC1) [µM] | HDAC6 selectivity (fold) (human recombinant HDAC6) | IC50 (human recombinant HDAC6) [µM] | Compound |
| --- | --- | --- | --- |
| 54.6 | 975 | 0.056 | O=C(c1cncn1CCS(=O)(=O)N(Cc1ccc(-c2nnc(C(F)F)o2)cc1)c1ccccc1)C(F)F [Compound 11678, 2-(5-(2,2-difluoroacetyl)-1H-imidazol-1-yl)-N-(4-(5-(difluoromethyl)-1,3,4-oxadiazol-2-yl)benzyl)-N-phenylethane-1-sulfonamide] |
| 20.2 | 423 | 0.0477 | Cc1cccc(N(Cc2ccc(-c3nnc(C(F)F)o3)cn2)S(=O)(=O)C2CCN([C@H]3CC[C@H](F)CC3)CC2)c1 [Compound 11688, N-((5-(5-(difluoromethyl)-1,3,4-oxadiazol-2-yl)pyridin-2-yl)methyl)-1-((1r,4r)-4-fluorocyclohexyl)-N-(m-tolyl)piperidine-4-sulfonamide] |
| 20 | 429 | 0.0466 | Cc1cccc(N(Cc2ccc(-c3nnc(C(F)F)o3)cn2)S(=O)(=O)C2CCN([C@H]3CC[C@@H](F)CC3)CC2)c1 [Compound 11689, N-((5-(5-(difluoromethyl)-1,3,4-oxadiazol-2-yl)pyridin-2-yl)methyl)-1-((1s,4s)-4-fluorocyclohexyl)-N-(m-tolyl)piperidine-4-sulfonamide] |
| 34.2 | 425 | 0.0805 | Cc1cccc(N(Cc2ccc(-c3nnc(C(F)F)o3)cn2)S(=O)(=O)C2CCN([C@H]3CC[C@@H](C(F)(F)F)CC3)CC2)c1 [Compound 11691, N-((5-(5-(difluoromethyl)-1,3,4-oxadiazol-2-yl)pyridin-2-yl)methyl)-N-(m-tolyl)-1-((1s,4s)-4-(trifluoromethyl)cyclohexyl)piperidine-4-sulfonamide] |
| 51.4 | 289 | 0.178 | Cc1cccc(N(Cc2ccc(-c3nnc(C(F)F)o3)cc2)S(=O)(=O)C2CCN([C@H]3CC[C@@H](F)CC3)CC2)c1 [Compound 11696, N-(4-(5-(difluoromethyl)-1,3,4-oxadiazol-2-yl)benzyl)-1-((1s,4s)-4-fluorocyclohexyl)-N-(m-tolyl)piperidine-4-sulfonamide] |
| 42.5 | 597 | 0.0711 | C[C@H]1CCCN1CCCS(=O)(=O)N(Cc1ccc(-c2nnc(C(F)F)o2)cc1)c1ccccc1 [Compound 11707, (S)—N-(4-(5-(difluoromethyl)-1,3,4-oxadiazol-2-yl)benzyl)-3-(2-methylpyrrolidin-1-yl)-N-phenylpropane-1-sulfonamide] |
| 29.4 | 578 | 0.0509 | O=S(=O)(CCCN1CCCC1)N(Cc1ccc(-c2nnc(C(F)F)o2)cn1)c1ccccc1 [Compound 11710, N-((5-(5-(difluoromethyl)-1,3,4-oxadiazol-2-yl)pyridin-2-yl)methyl)-N-phenyl-3-(pyrrolidin-1-yl)propane-1-sulfonamide] |
| 41 | 1266 | 0.0324 | O=S(=O)(CCCN1CCCC1)N(Cc1ccc(-c2nnc(C(F)F)o2)cc1)c1ccc(F)c(Cl)c1 [Compound 11722, N-(3-chloro-4-fluorophenyl)-N-(4-(5-(difluoromethyl)-1,3,4-oxadiazol-2-yl)benzyl)-3-(pyrrolidin-1-yl)propane-1-sulfonamide] |
